According to patent US10138233B2, “Imidazole compounds as modulators of FSHR and uses thereof” (Merck Patent GmbH, priority 2013, dated 2018):

Legend:
FSHR = target: T1, FSHR (Homo sapiens, UniProt P23945); experiment: EC50 of cyclic AMP production in CHO FSHR cells + EC20 FSH (Assay A); format: cell-based; details: CHO-FSHR-LUC cells, in presence of EC20 FSH, cAMP HTRF, 1 h 37° C.
T1 construct: expressed in transfected cells; host or cells: CHO cells, clone Cho-FSHR-LUC-1-1-43
T1 sequence (P23945 18-695): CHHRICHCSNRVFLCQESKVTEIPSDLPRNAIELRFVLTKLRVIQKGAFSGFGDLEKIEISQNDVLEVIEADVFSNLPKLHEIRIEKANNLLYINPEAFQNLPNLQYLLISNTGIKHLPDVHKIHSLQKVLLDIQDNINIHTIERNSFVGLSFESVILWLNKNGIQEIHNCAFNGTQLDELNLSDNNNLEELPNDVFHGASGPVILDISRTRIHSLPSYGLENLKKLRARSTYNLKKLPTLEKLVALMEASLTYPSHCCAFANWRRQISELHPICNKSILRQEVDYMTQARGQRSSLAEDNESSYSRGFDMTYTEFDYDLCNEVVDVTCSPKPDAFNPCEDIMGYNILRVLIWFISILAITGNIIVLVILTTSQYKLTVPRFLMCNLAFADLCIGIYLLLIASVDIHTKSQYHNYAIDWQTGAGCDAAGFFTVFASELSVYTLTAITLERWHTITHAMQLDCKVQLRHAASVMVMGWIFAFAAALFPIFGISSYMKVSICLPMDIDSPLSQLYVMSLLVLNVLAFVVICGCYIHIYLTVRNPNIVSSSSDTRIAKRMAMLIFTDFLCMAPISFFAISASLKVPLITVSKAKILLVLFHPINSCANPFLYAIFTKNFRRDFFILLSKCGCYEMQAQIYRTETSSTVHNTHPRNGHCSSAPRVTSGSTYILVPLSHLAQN

[1] = target: T2, follicle-stimulating hormone (FSH) receptor (Rattus norvegicus, UniProt P20395); experiment: Rat Granulosa EC50 FSH (Assay B); format: cell-based; details: rat granulosa cells, per Yanofsky et al. 2006
T2 construct: Rat Granulosa EC50 FSH (Assay B); endogenous in cells; host or cells: rat granulosa cells
T2 sequence (P20395 18-692): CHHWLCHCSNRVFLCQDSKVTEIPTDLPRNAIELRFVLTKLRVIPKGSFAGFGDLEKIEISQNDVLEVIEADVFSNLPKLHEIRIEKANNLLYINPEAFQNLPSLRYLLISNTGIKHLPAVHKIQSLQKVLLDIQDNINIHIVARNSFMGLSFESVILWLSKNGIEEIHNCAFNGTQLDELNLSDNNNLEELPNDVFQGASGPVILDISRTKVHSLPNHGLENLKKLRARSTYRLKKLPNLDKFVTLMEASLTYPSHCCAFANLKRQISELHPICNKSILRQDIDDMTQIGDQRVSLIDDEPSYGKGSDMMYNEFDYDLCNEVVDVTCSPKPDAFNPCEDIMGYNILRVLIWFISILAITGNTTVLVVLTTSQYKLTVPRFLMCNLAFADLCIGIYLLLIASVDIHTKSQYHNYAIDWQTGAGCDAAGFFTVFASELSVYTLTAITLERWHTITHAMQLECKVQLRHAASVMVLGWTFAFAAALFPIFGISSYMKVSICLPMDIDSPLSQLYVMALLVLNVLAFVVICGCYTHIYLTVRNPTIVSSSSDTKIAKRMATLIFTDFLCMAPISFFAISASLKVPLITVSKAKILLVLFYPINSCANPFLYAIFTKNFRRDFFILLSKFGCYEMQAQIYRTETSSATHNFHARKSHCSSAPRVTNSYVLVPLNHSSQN

EC50 (FSHR) [nM]	EC50 [1] [nM]	SMILES
< 100	< 100	COc1cc2c(cc1OC(C)C)-n1c(-c3ccsc3)nc(C(=O)N3CCCN(C(=O)C4CCC4)CC3)c1CC2 [Compound 6]
< 100	100 to 1000	COc1cc2c(cc1OC(C)C)-n1c(-c3cccs3)nc(C(=O)N3CCCN(C(=O)C4CCC4)CC3)c1CC2 [Compound 7]
100 to 1000	> 5000	COc1cc2c(cc1OC(C)C)-n1c(-c3cccs3)nc(C(=O)N(C)C(C)(C)C)c1CC2 [Compound 11, 8-Isopropoxy-7-methoxy-1-thiophen-2-yl-4,5-dihydro-imidazo[1,5-a]quinoline-3-carboxylic acid tert-butyl-methyl-amide]
< 100	100 to 1000	COc1cc2c(cc1CC(C)C)-n1c(-c3ccc(F)s3)nc(C(=O)N3CCOCC3(C)C)c1CC2 [Compound 19, (3,3-Dimethyl-morpholin-4-yl)-[1-(5-fluoro-thiophen-2-yl)-8-isobutyl-7-methoxy-4,5-dihydro-imidazo[1,5-a]quinolin-3-yl]-methanone]
< 100	1000 to 5000	COc1cc2c(cc1CC(C)C)-n1c(-c3ccc(F)s3)nc(C(=O)N(C)C(C)(C)C)c1CC2 [Compound 21, 1-(5-Fluoro-thiophen-2-yl)-8-isobutyl-7-methoxy-4,5-dihydro-imidazo[1,5-a]quinoline-3-carboxylic acid tert-butyl-methyl-amide]
100 to 1000	> 5000	COc1cc2c(cc1CC(C)C)-n1c(-c3ccc[nH]3)nc(C(=O)N3CCOCC3(C)C)c1CC2 [Compound 30, (3,3-Dimethyl-morpholin-4-yl)-[8-isobutyl-7-methoxy-1-(1H-pyrrol-2-yl)-4,5-dihydro-imidazo[1,5-a]quinolin-3-yl]-methanone]
100 to 1000	> 5000	[2H]C([2H])([2H])N(CCN(C(=O)c1nc(-c2cccs2)n2c1CCc1cc(OC)c(CC(C)C)cc1-2)C([2H])([2H])[2H])C(C)=O [Compound 31, 8-Isobutyl-7-methoxy-1-thiophen-2-yl-4,5-dihydro-imidazo[1,5-a]quinoline-3-carboxylic acid [2-(acetyl-methyl-d3-amino)-ethyl]-methyl-d3-amide]
< 100	> 5000	[2H]C([2H])([2H])OCC(C)(C)N(C(=O)c1nc(-c2cccs2)n2c1CCc1cc(OC)c(CC(C)C)cc1-2)C([2H])([2H])[2H] [Compound 32, 8-Isobutyl-7-methoxy-1-thiophen-2-yl-4,5-dihydro-imidazo[1,5-a]quinoline-3-carboxylic acid (2-methoxy-d3-1,1-dimethyl-ethyl)-methyl-d3-amide]
100 to 1000	1000 to 5000	COc1cc2c(cc1CC(C)C)-n1c(S(=O)(=O)C3CC3)nc(C(=O)N(C)C(C)(C)C)c1CC2 [Compound 34, 1-Cyclopropanesulfonyl-8-isobutyl-7-methoxy-4,5-dihydro-imidazo[1,5-a]quinoline-3-carboxylic acid tert-butyl-methyl-amide]
100 to 1000	> 5000	COc1cc2c(cc1OC(C)C)-n1c(-c3cccn3C)nc(C(=O)N3CCOCC3(C)C)c1CC2 [Compound 38]
< 100	1000 to 5000	[2H]C([2H])([2H])Oc1cc2c(cc1CC(C)C)-n1c(-c3ccsc3)nc(C(=O)N3CCOCC3(C)C)c1CC2 [Compound 41, (3,3-Dimethyl-morpholin-4-yl)-(8-isobutyl-7-methoxy-d3-1-thiophen-3-yl-4,5-dihydro-imidazo[1,5-a]quinolin-3-yl)-methanone]
100 to 1000	> 5000	COc1cc2c(cc1OC(C)C)-n1c(-c3cccc(Cl)c3)nc(C(=O)N3CCOCC3(C)C)c1CC2 [Compound 44]
100 to 1000	> 5000	COc1cc2c(cc1OC(C)C)-n1c(C3=CCCC3)nc(C(=O)N3CCOCC3(C)C)c1CC2 [Compound 49]
< 100	1000 to 5000	[2H]C([2H])([2H])Oc1cc2c(cc1CC(C)C)-n1c(-c3cccs3)nc(C(=O)N(C)C(C)(C)C)c1CC2 [Compound 53, 8-Isobutyl-7-methoxy-d3-1-thiophen-2-yl-4,5-dihydro-imidazo[1,5-a]quinoline-3-carboxylic acid tert-butyl-methyl-amide]
< 100	100 to 1000	COc1cc2c(cc1OC(C)C)-n1c(-c3ccc(F)s3)nc(C(=O)N3CCOCC3(C)C)c1CC2 [Compound 59]
< 100	1000 to 5000	COc1cc2c(cc1OC(C)C)-n1c(-c3cc(C)cs3)nc(C(=O)N3CCOCC3(C)C)c1CC2 [Compound 70]
< 100	100 to 1000	COc1cc2c(cc1OC(C)C)-n1c(-c3ccc(C)s3)nc(C(=O)N3CCOCC3(C)C)c1CC2 [Compound 71]
< 100	< 100	COc1cc2c(cc1OC(C)C)-n1c(-c3ccc(Cl)s3)nc(C(=O)N3CCOCC3(C)C)c1CC2 [Compound 72]
< 100	100 to 1000	COc1cc2c(cc1-c1cnn(C)c1)-n1c(-c3cccs3)nc(C(=O)N3CCOCC3(C)C)c1CC2 [Compound 75, (3,3-Dimethyl-morpholin-4-yl)-[7-methoxy-8-(1-methyl-1H-pyrazol-4-yl)-1-thiophen-2-yl-4,5-dihydro-imidazo[1,5-a]quinolin-3-yl]-methanone]
< 100	100 to 1000	COc1cc2c(cc1-c1c[nH]nc1C)-n1c(-c3ccsc3)nc(C(=O)N(C)C(C)(C)C)c1CC2 [Compound 76, 7-Methoxy-8-(3-methyl-1H-pyrazol-4-yl)-1-thiophen-3-yl-4,5-dihydro-imidazo+1,5-a+quinoline-3-carboxylic acid tert-butyl-methyl-amide]
100 to 1000	1000 to 5000	COc1cc2c(cc1CC(C)C)-n1c(-c3ccc(C)s3)nc(C(=O)N(C)C(C)(C)C)c1CC2 [Compound 96, 8-Isobutyl-7-methoxy-1-(5-methyl-thiophen-2-yl)-4,5-dihydro-imidazo[1,5-a]quinoline-3-carboxylic acid tert-butyl-methyl-amide]
< 100	100 to 1000	COc1cc2c(cc1CC(C)C)-n1c(-c3ccc(Cl)s3)nc(C(=O)N(C)C(C)(C)C)c1CC2 [Compound 97, 1-(5-Chloro-thiophen-2-yl)-8-isobutyl-7-methoxy-4,5-dihydro-imidazo[1,5-a]quinoline-3-carboxylic acid tert-butyl-methyl-amide]
100 to 1000	1000 to 5000	COc1cc2c(cc1OC(C)C)-n1c(-c3ccc(F)c(F)c3)nc(C(=O)N3CCOCC3(C)C)c1CC2 [Compound 102]
< 100	100 to 1000	COc1cc2c(cc1OC(C)C)-n1c(-c3cc(Cl)cc(Cl)c3)nc(C(=O)N3CCOCC3(C)C)c1CC2 [Compound 110]
< 100	100 to 1000	COc1cc2c(cc1OC(C)C)-n1c(-c3cc(Cl)cs3)nc(C(=O)N3CCOCC3(C)C)c1CC2 [Compound 114]
100 to 1000	100 to 1000	COc1cc2c(cc1OC(C)C)-n1c(-c3cccc(Cl)c3F)nc(C(=O)N3CCOCC3(C)C)c1CC2 [Compound 134]
< 100	> 5000	COc1cc2c(cc1OC(C)C)-n1c(-c3ccsc3)nc(C(=O)N(C)C(C)(C)C)c1CO2 [Compound 135, 8-Isopropoxy-7-methoxy-1-thiophen-3-yl-4H-5-oxa-2,9b-diaza-cyclopenta[a]naphthalene-3-carboxylic acid tert-butyl-methyl-amide]

SMILES	EC50 (FSHR) [nM]	EC50 [1] [nM]
COc1cc2c(cc1CC(C)C)-n1c(-c3cccs3)nc(C(=O)N(C)CCN3CCOC3=O)c1CC2 [Compound 25, 8-Isobutyl-7-methoxy-1-thiophen-2-yl-4,5-dihydro-imidazo[1,5-a]quinoline-3-carboxylic acid methyl-[2-(2-oxo-oxazolidin-3-yl)-ethyl]-amide]	< 100	100 to 1000
